This passage reports IC50 results from ChEMBL document CHEMBL1147304, “Antioxidant metabolites from the tunicate Amaroucium multiplicatum” (J Nat Prod, 1989).

≈ marks a conversion by molar mass, not a printed value. Some results are limits rather than exact numbers.

The subject of one assay is Liver microsomes. As to the kind of experiment: Antioxidant activity in rat liver microsomes assessed as inhibition of lipid peroxide formation after 30 mins. Type of assay: functional, Microsome. (Microsomes from liver hold many membrane-bound enzymes, among them those of drug oxidation.)
A short description of assay [1]: Inhibition of soybean arachidonate 15-lipoxygenase by oxygen electrode method. More on the design: species or system Glycine max.

On to `CC(C)=CCCC1(C)C=Cc2cc(O)ccc2O1` (stereo not drawn) [CORDIACHROMENE A], for which the IC50 with Liver microsomes was determined as 0.3 µg/mL (≈ 1.23 µM); in assay [1], 0.2 µg/mL (≈ 0.819 µM).

In the case of `CC(C)=CCCC(C)(O)CCc1cc(O)ccc1O` (stereo not drawn), the IC50 with Liver microsomes was 0.3 µg/mL (≈ 1.13 µM); in assay [1], 3 µg/mL (≈ 11.3 µM).

In the case of `CC(=O)Oc1c(C)c(C)c2c(c1C)CCC(C)(CCC[C@H](C)CCC[C@H](C)CCCC(C)C)O2` (stereo partly drawn) [TOCOPHEROL ACETATE], the IC50 (in the assay with Liver microsomes; in assay [1]) was above 10 µg/mL throughout.

Take `CC(C)=CCCC(C)(O)/C=C/c1cc(O)ccc1O` (stereo not drawn): the IC50 with Liver microsomes amounted to 0.3 µg/mL (≈ 1.14 µM).

`Cc1cc(C(C)(C)C)c(O)c(C(C)(C)C)c1` [BUTYLATED HYDROXYTOLUENE]: the IC50 was 0.3 µg/mL (≈ 1.36 µM) in the assay with Liver microsomes and above 10 µg/mL in assay [1].

In the case of `COc1cc2c(cc1O)C=CC(C)(CCC=C(C)C)O2` (stereo not drawn), the IC50 came out at 0.1 µg/mL (≈ 0.364 µM) in the assay on Liver microsomes and 0.5 µg/mL (≈ 1.82 µM) in assay [1].

Turning to `CC(C)=CCC/C(C)=C/Cc1cc(O)ccc1O` [GEROQUINOL], the figures for the IC50 (in the assay on Liver microsomes; in assay [1]) were 0.1 µg/mL (≈ 0.406 µM) and 0.2 µg/mL (≈ 0.812 µM), respectively.

What is called IC50 is the midpoint of a concentration-inhibition curve.
